According to ChEMBL document CHEMBL1201862, “PubChem BioAssay data set” (2004):
The source made the active and inactive calls.

Tests used:
[1] = target: T1, Eukaryotic translation initiation factor 4H (Homo sapiens, UniProt Q15056); experiment: eIF4H binding inhibition – biochemical, uHTS, fluorescence polarization, translation initiation inhibitor project, primary screen (AID 2012)
[2] = target: T2, Polyadenylate-binding protein 1 (Homo sapiens, UniProt P11940); experiment: blockers of PABP interaction with poly(A) – biochemical, fluorescence polarization, […] (AID 2014)
T2 sequence (P11940 whole entry): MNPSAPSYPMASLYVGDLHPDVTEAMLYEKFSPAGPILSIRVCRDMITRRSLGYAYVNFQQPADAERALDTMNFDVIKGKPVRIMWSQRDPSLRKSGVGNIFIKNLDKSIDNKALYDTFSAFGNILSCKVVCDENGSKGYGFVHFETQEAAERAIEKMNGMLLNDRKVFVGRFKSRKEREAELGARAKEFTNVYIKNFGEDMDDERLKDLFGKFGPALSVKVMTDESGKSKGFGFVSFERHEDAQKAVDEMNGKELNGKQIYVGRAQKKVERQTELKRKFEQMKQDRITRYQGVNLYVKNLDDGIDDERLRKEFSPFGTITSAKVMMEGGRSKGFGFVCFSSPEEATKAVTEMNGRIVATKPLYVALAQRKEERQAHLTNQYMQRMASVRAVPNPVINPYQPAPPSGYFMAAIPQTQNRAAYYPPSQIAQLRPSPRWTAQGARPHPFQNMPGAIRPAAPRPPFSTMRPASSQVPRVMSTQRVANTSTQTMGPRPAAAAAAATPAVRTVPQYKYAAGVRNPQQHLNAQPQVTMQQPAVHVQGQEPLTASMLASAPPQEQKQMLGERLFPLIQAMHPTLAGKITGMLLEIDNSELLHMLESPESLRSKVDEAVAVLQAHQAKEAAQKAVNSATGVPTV

[3] = target: T3, Melanin-concentrating hormone receptor 1 (Homo sapiens, UniProt Q99705); experiment: Late-stage fluorescence-based counterscreen for antagonists of the G-protein coupled receptor 7 (GPR7): cell-based dose response assay to identify antagonists of the melanin-concentrating hormone receptor 1 (MCHR1). [Related pubchem assays (depositor defined):AID1861, AID1880, AID1952, AID2148, AID2251, AID2257, AID485339]; assay type: functional
T3 sequence (Q99705 whole entry): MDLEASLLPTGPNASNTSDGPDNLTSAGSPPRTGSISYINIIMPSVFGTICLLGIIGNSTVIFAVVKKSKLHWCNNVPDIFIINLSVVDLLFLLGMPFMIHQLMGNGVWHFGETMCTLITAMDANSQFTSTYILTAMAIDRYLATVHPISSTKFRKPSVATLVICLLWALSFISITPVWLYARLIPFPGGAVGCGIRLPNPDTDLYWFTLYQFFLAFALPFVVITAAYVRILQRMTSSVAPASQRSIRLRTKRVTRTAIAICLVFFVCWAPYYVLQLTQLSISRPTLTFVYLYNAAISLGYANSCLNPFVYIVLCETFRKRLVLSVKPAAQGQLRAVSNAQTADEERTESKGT

[4] = target: T4, Neuropeptides B/W receptor type 1 (Homo sapiens, UniProt P48145); experiment: human NPBW1 receptor blockade, IC50 – cell-based, fluorescence, dose response, late-stage follow-up (AID 463251); assay type: functional
T4 sequence (P48145 whole entry): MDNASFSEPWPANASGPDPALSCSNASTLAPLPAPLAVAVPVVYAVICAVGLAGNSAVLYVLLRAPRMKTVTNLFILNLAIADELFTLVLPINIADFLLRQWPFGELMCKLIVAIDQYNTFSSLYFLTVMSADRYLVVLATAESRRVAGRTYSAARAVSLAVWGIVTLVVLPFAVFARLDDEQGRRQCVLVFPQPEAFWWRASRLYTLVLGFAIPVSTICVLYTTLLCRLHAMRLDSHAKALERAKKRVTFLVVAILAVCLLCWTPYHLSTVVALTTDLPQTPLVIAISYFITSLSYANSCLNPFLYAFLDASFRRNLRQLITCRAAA

[5] = target: Procathepsin L (Homo sapiens, UniProt P07711)
Sequence of Procathepsin L (P07711 whole entry): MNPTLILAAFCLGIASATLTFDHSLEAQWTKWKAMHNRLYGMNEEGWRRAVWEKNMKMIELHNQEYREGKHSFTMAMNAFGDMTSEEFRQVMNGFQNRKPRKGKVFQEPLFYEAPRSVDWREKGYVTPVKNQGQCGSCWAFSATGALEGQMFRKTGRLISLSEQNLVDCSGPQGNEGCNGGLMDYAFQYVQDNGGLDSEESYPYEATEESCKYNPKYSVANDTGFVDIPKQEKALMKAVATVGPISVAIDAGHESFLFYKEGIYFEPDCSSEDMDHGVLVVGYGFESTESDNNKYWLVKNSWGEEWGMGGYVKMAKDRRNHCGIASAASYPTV

[6] = target: Aspartyl aminopeptidase (Plasmodium falciparum 3D7, UniProt Q8I2J3)
Sequence of Aspartyl aminopeptidase (Q8I2J3 whole entry): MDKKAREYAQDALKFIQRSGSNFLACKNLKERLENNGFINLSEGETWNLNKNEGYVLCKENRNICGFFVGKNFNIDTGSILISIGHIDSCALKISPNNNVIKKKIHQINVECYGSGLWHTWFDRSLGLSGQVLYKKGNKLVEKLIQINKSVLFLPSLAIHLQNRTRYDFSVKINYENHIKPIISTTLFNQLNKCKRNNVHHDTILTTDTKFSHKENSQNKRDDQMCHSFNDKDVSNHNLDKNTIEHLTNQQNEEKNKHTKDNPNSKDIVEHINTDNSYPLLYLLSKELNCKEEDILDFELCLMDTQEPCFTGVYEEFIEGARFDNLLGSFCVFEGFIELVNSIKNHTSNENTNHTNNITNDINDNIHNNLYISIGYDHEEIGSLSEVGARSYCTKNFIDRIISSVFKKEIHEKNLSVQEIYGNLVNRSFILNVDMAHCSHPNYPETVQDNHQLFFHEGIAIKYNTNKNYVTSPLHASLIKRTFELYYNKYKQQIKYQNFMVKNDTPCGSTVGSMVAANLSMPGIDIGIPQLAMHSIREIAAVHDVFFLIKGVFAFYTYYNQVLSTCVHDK

[7] = tested on: HeLa; experiment: viability loss in HeLa cells – cell-based, 24 h, cherry-picked samples, cytotoxicity control, dose response (AID 504726); assay type: functional; details: Homo sapiens;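 further: potency for cytotoxicity as loss of luminescence signal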
[8] = target: T3, Melanin-concentrating hormone receptor 1; experiment: Fluorescence-based counterscreen for antagonists of the G-protein coupled receptor 7 (GPR7): cell-based high throughput dose response assay to identify antagonists of the melanin-concentrating hormone receptor 1 (MCHR1).; assay type: functional
[9] = target: T4, Neuropeptides B/W receptor type 1; experiment: Fluorescence-based dose response cell-based high throughput screening assay to identify antagonists of the G-protein coupled receptor 7 (GPR7). [Related pubchem assays: 1952 (Screening assay (GPR7 antagonists).), 1880 (Summary AID.)]; assay type: functional
[10] = target: DNA dC->dU-editing enzyme APOBEC-3G (Homo sapiens, UniProt Q9HC16); assay type: functional;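 further: Dose-response counterscreen measuring inhibition of APOBEC3G DNA deaminase activity, run while confirming APOBEC3A inhibitors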
Sequence of DNA dC->dU-editing enzyme APOBEC-3G (Q9HC16 whole entry): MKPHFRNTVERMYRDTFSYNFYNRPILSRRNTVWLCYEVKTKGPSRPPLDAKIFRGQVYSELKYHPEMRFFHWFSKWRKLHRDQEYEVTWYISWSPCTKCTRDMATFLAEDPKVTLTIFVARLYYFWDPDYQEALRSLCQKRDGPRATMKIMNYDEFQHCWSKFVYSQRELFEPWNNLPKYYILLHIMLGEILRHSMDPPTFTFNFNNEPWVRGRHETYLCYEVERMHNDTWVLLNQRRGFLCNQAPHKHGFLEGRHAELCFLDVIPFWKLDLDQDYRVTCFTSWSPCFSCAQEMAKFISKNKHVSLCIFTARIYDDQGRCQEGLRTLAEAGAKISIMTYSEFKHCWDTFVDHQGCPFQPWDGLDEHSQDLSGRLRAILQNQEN

[11] = target: T1, Eukaryotic translation initiation factor 4H; experiment: inhibitors of translation initiation factor eIF4H – SAR follow-up (AID 435011); assay type: functional
[12] = target: T2, Polyadenylate-binding protein 1; experiment: PABP inhibition in translation initiation, SAR follow-up (AID 435018); assay type: functional
[13] = target: DNA dC->dU-editing enzyme APOBEC-3A (Homo sapiens, UniProt P31941); experiment: Dose Response confirmation of small molecule APOBEC3A DNA Deaminase Inhibitors via a fluorescence-based single-stranded DNA deaminase assay. [Related pubchem assays (depositor defined):AID493011, AID493024]; assay type: functional
Sequence of DNA dC->dU-editing enzyme APOBEC-3A (P31941 whole entry): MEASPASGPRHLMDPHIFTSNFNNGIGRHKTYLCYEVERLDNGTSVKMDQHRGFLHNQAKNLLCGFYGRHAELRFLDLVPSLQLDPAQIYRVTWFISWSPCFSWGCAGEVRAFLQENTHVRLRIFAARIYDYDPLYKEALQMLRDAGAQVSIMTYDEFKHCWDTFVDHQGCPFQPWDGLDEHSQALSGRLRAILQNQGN

[14] = target: G-protein coupled receptor 55 (Homo sapiens, UniProt Q9Y2T6); experiment: inhibition of LPI-stimulated GPR55 beta-arrestin translocation – imaging, U2OS, beta-arrestin-GFP, LPI agonist, primary screen (AID 2013); assay type: functional;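 further: antagonist potency measured as reduced agonist-driven arrestin aggregation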
Sequence of G-protein coupled receptor 55 (Q9Y2T6 whole entry): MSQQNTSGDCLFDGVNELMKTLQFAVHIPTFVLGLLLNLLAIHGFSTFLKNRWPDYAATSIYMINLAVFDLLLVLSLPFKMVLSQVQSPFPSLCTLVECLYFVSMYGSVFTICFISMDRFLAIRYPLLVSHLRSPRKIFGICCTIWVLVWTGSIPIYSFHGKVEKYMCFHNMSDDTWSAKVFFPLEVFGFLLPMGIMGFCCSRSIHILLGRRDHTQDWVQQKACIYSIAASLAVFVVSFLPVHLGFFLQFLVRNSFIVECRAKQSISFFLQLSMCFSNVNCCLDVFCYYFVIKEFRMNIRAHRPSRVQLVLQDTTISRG

Cc1ccc(OCC(=O)N/N=C/C=C/c2ccco2)cc1
IC50 [1]: 15.6 µM (active)
IC50 [2]: 45.5 µM (active)

O=C(C1CCCCN1Cc1ccc(Cl)cc1)N1CCN(c2ccc([N+](=O)[O-])cc2)CC1 (stereo not given)
IC50 [3]: 1.8 µM (active)
IC50 [4]: 1.6 µM (active)

CCOC(=O)c1ccc(NC(=O)Nn2cnnc2)cc1
IC50 [5]: > 59.6 µM (not active)
IC50 [6]: 2.09 µM (active)

CNC(S)=Nc1cccc(C(=O)OC)c1
AC50 [7]: 213 µM (active)

COc1cc(OC)c(S(=O)(=O)N2CCCCC2)cc1S(=O)(=O)N1CCCCC1
IC50 [8]: > 43.8 µM (not active)
IC50 [3]: > 20 µM (inactive)
IC50 [9]: 7.02 µM (active)
IC50 [4]: > 20 µM (inactive)

CC(C)NC(=O)C(C)N1CCN(S(=O)(=O)c2ccc3ccccc3c2)CC1 (stereo not given)
IC50 [1]: 88.9 µM (active)
IC50 [10]: 3.72 µM (active)
IC50 [2]: 5.92 µM (active)
IC50 [11]: 27.6 µM (active)
IC50 [12]: 20.5 µM (active)
IC50 [13]: 3.38 µM (active)

CCOC(=O)Cc1c(Sc2ccccc2)c2cc(C)ccc2n1C
IC50 [11]: > 100 µM (inactive)
IC50 [12]: > 100 µM (inactive)

Cc1cc(Cl)ccc1NC(=S)N(CCCN1CCOCC1)Cc1cccs1
IC50 [14]: 6.24 µM (active)
